In patent US20100168084A1, “Therapeutic compounds and related methods of use” (priority 2008, published 2010):
Where two headings read alike, the source gives them in different places.

Target: T1, sirtuin protein (Homo sapiens, UniProt Q96EB6)
T1 sequence (Q96EB6 2-747 limits assumed): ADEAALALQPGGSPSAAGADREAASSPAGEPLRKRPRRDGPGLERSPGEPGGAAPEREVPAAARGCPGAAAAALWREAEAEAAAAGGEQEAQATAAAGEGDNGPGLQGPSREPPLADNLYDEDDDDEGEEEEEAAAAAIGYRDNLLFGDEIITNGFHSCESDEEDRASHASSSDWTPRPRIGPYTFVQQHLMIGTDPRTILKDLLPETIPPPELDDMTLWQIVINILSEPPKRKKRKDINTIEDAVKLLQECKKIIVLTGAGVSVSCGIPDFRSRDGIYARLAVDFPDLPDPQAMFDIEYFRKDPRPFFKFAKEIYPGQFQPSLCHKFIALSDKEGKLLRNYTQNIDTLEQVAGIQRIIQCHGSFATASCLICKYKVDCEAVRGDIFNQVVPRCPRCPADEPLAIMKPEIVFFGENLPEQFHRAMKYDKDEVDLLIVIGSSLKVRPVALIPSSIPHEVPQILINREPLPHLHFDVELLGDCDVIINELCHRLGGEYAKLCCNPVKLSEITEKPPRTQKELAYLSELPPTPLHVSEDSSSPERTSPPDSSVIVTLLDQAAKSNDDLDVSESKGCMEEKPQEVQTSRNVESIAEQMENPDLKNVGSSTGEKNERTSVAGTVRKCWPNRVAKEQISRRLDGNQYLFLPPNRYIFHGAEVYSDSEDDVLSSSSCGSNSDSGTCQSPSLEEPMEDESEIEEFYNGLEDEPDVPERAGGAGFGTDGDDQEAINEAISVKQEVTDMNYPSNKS
Assay: MS assay (IC50 MS ASSAY / ED50 MS / FOLD ACTIVATION MS)
Type: biochemical
Set-up: scale not given here

[1] = MS assay, class symbols A′, A, B, D, NA, legend not given
[2] = Table 4, class symbols A′, A, B, D, NA, legend not given
[3] = Table 4, class symbols, legend not given
[4] = MS assay, class symbols, key not given
[5] = Table 4, class symbols A′, A, B, C, NA, legend not given
[6] = class symbols (A′, A, B, D, NA), no legend given

ED50 MS ASSAY [1] | ED50 MS ASSAY (Table 4) | ED50 MS ASSAY [2] | ED50 MS ASSAY (TABLE 4) | ED50 MS ASSAY [3] | ED50 MS ASSAY (class symbols, no key given) | ED50 MS ASSAY | ED50 MS ASSAY [4] | ED50 MS ASSAY [5] | ED50 MS ASSAY (Table 4, class symbols) | ED50 MS ASSAY [6] | Compound
A′ | A′ | A′ | – | – | – | – | – | – | – | – | CN(C)c1ccc(C(=O)Nc2ccccc2-c2nc3cnccc3s2)cc1 [Compound 320]
A′ | A′ | A′ | – | – | – | – | – | – | – | – | COc1ccc(C(=O)Nc2ncccc2-c2nc3ccccc3[nH]2)cc1OC [Compound 276]
– | A′ | – | A′ | A′ | A′ | – | – | – | – | – | COc1cc(C(=O)Nc2cccc(-c3nc4cccnc4s3)c2)cc(OC)c1OC [Compound 217]
A′ | A′ | A′ | – | – | – | – | – | – | – | – | COc1cc(C(=O)Nc2ccccc2-c2nc3cnccc3o2)cc(OC)c1OC [Compound 405]
A′ | A′ | A′ | – | – | – | – | – | – | – | – | CN(C)c1cccc(C(=O)Nc2ccccc2-c2nc3cnccc3o2)c1 [Compound 406]
– | A′ | – | A′ | – | – | A′ | A′ | A′ | – | – | Cc1csc2nc(-c3ccccc3NC(=O)c3cccc(N(C)C)c3)cn12 [Compound 740]
A′ | A′ | A′ | – | – | – | – | – | – | – | – | COc1cc(C(=O)Nc2cccc(-c3nc4ccccc4[nH]3)n2)cc(OC)c1OC [Compound 259]
A′ | A′ | A′ | – | – | – | – | – | – | – | – | COc1cc(C(=O)Nc2ccccc2-c2cc3ccccc3[nH]2)cc(OC)c1OC [Compound 255]
– | A′ | A′ | – | – | – | A′ | – | – | A′ | A′ | O=C(Nc1ccccc1-c1cn2cc(CN3CCNCC3)sc2n1)c1cnc2ccccc2n1 [Compound 513]
A′ | A′ | A′ | – | – | – | – | – | – | – | – | CN(C)c1cccc(C(=O)Nc2ccc(-c3nc4cnccc4o3)s2)c1 [Compound 427]
– | A′ | A′ | – | – | – | A′ | – | – | A′ | A′ | O=C(Nc1ccccc1-c1cn2c(CNCC(O)CO)csc2n1)c1cnc2ccccc2n1 (stereo not shown) [Compound 676]
– | A′ | A′ | – | – | – | A′ | – | – | A′ | A′ | CN(C)c1cccc(C(=O)Nc2ccc(-c3nc4cnccc4s3)s2)c1 [Compound 518]
– | A′ | A′ | – | – | – | A′ | – | – | A′ | A′ | COc1cc(C(=O)Nc2ccccc2-c2nc3ncccc3o2)ccc1CN1CCOCC1 [Compound 631]
– | A′ | A′ | – | – | – | A′ | – | – | A′ | A′ | COc1cc(C(=O)Nc2ccccc2-c2nc3cccnc3[nH]2)ccc1CN1CCN(C)CC1 [Compound 539]
A′ | A′ | A′ | – | – | – | – | – | – | – | – | O=C(Nc1ccccc1-c1cn2c(CN3CCNCC3)csc2n1)c1cnc2ccccc2n1 [Compound 441]
A′ | A′ | A′ | – | – | – | – | – | – | – | – | COc1cc(C(=O)Nc2ccccc2-c2cn3cccnc3n2)cc(OC)c1OC [Compound 439]
A′ | A′ | A′ | – | – | – | – | – | – | – | – | CN(C)c1cccc(C(=O)Nc2ccccc2-c2nc3cnccc3s2)c1 [Compound 321]

ED50 MS ASSAY [1] | ED50 MS ASSAY (Table 4) | ED50 MS ASSAY [2] | ED50 MS ASSAY (TABLE 4) | ED50 MS ASSAY [3] | ED50 MS ASSAY (class symbols, no key given) | ED50 MS ASSAY | ED50 MS ASSAY [4] | ED50 MS ASSAY [5] | ED50 MS ASSAY (Table 4, class symbols) | ED50 MS ASSAY [6] | Compound
– | A′ | – | A′ | A′ | A′ | – | – | – | – | – | CN(C)c1cccc(C(=O)Nc2cccc(-c3nc4ncccc4s3)c2)c1 [Compound 200]
– | A′ | – | A′ | – | – | A′ | A′ | A′ | – | – | O=C(Nc1ccccc1-c1cn2c(CN3CCNCC3)csc2n1)c1cc(F)cc(F)c1 [Compound 695]
– | A′ | – | A′ | A′ | A′ | – | – | – | – | – | COc1cc(C)ccc1C(=O)Nc1cccc(-c2nc3ncccc3s2)c1 [Compound 199]
– | A′ | – | A′ | – | – | A′ | A′ | A′ | – | – | CN1CCN(Cc2csc3nc(-c4ccccc4NC(=O)c4cnc5ccccc5n4)cn23)C(=O)C1 [Compound 741]
A′ | A′ | A′ | – | – | – | – | – | – | – | – | COc1ccc(C(=O)Nc2ccc(-c3nc4ccccc4[nH]3)cc2)c(OC)c1 [Compound 262]
A′ | A′ | A′ | – | – | – | – | – | – | A′ | A′ | CN(C)c1ccc(C(=O)Nc2ccccc2-c2nc3ccncc3o2)cc1 [Compound 459]
– | A′ | – | A′ | A′ | A′ | – | – | – | – | – | COc1ccc(C(=O)Nc2cccc(-c3nc4cccnc4[nH]3)c2)c(OC)c1OC [Compound 181]
– | A′ | A′ | – | – | – | A′ | – | – | A′ | A′ | O=C(Nc1ccccc1-c1cn2c(CN3CCNCC3)csc2n1)c1cc(-c2ccccc2)ncn1 [Compound 625]
– | A′ | A′ | – | – | – | A′ | – | – | A′ | A′ | O=C(Nc1ccccc1-c1nc2cccnc2[nH]1)c1ccccc1 [Compound 533]
– | A′ | – | A′ | – | – | A′ | A′ | A′ | – | – | COc1cc(C(=O)Nc2ccccc2-c2cn3c(C)csc3n2)cc(OC)c1OC [Compound 739]
– | A′ | – | A′ | A′ | A′ | – | – | – | – | – | COc1ccc(C(=O)Nc2cccc(-c3nc4cccnc4[nH]3)c2)cc1OC [Compound 185]
– | A′ | A′ | – | – | – | A′ | – | – | A′ | A′ | COc1ccc(C(=O)Nc2ccc(C)cc2-c2nc3ccccc3[nH]2)cc1OC [Compound 507]
– | A′ | – | A′ | – | – | A′ | A′ | A′ | – | – | O=C(Nc1ccccc1-c1cn2c(CN3CCNCC3)csc2n1)c1cccc(SC(F)F)c1 [Compound 737]
– | A′ | A′ | – | – | – | A′ | – | – | A′ | A′ | CC(=O)N1CCN(Cc2csc3nc(-c4ccccc4NC(=O)c4cnc5ccccc5n4)cn23)CC1 [Compound 651]
A′ | A′ | A′ | – | – | – | – | – | – | – | – | COc1cc(C(=O)Nc2ccc(-c3nc4ccncc4o3)cc2)cc(OC)c1OC [Compound 341]
– | A′ | A′ | – | – | – | A′ | – | – | A′ | A′ | COc1cc(C(=O)Nc2ccccc2-c2nc3ccccc3[nH]2)ccc1CN1CCCC1 [Compound 587]
